Assay results as given in US20250120975A1, “INTEGRIN INHIBITORS FOR TREATMENT OF PRIMARY SCLEROSING CHOLANGITIS” (Pliant Therapeutics, Inc., priority 2023, published 2025).

What was measured:
pSMAD3 = test: pSMAD3/SMAD3 MSD assay in mouse liver tissue; type: in vivo; details: all doses (100, 300, 1000 mg/kg), 6 weeks
Description: (§1) The tissue source is BALBc.Mdr2-/−male mice that were 6 weeks old. The Mdr2(abcb4)−/− mouse model of sclerosing cholangitis has been previously described and is a model of spontaneously progressive hepatic fibrosis in mice with deletion of the biliary phospholipid flippase on fibrosis-susceptible background (Mdr2(abcb4)^−/−. BALB/c mouse). See N. Ikenaga, et al. (2015) Am J Pathol. 185 (2): 325-334, the entire contents of which are hereby incorporated by reference in their entirety.
(§2) (S)-4-((2-methoxyethyl)(4-(5,6,7,8-tetrahydro-1,8-naphthyridin-2-yl)butyl)amino)-2-(quinazolin-4-ylamino)butanoic acid (or PBS) was dosed once daily orally at 100 mg/kg, 300 mg/kg or 1000 mg/kg (see Table B-2) starting at 6 weeks after birth of the subject and continuing for 6 weeks. All animals were euthanized and necropsied at the end of week 12.
Mouse liver tissues were lysed with RIPA buffer with protease inhibitor cocktail. Total protein concentration was determined by Micro BCA kit. MSD GOLD™ 96 Sm Spot SA Plate was washed three times with 150 μL of PBST and 1 μg/mL of biotinylated anti-SMAD2/3 was added to the plate, 25 μL per well (60 Min incubation under agitation). The plate was washed as before and 12.5 μL of unknown samples plus 12.5 μL of PBST were added in duplicates. […] After wash, 150 μL of 1× read buffer was added and the plate was read using an MSD Sector Imager instrument.

[1] = tested on: BALB/c.Mdr2−/− mouse model of biliary fibrosis; test: Relative and total liver collagen (hydroxyproline); type: in vivo; details: 6 weeks
Description: as §1, §2
Liver collagen was determined biochemically as hydroxyproline (OHP). See N. Ikenaga, et al. (2015) Am J Pathol. 185 (2): 325-334, the entire contents of which are hereby incorporated by reference in their entirety. Two fresh liver pieces from the left and right liver lobe (120-160 mg each) were hydrolyzed in 2 mL 6N HCl at a temperature of 110° C. for 16 h. Moreover, 20 μL of hydrolysate was evaporated under N2 and OHP was quantified using the chloramine-T/dimethylamino-benzaldehyde method. OHP levels were used to calculate relative (per 100 mg of wet liver) and total (obtained by multiplying liver weights with relative hepatic OHP) hepatic collagen content.

[2] = tested on: PCLivS from human liver tissue with biliary fibrosis (PSC, PBC); test: Fibrotic gene expression (NanoString) in precision cut liver slices; type: cell-based; details: for % Inhibition of expression COL1A1 / % Inhibition of expression COL1A2: PCLivS from a single PSC liver
Description: A human liver tissue explant was obtained from a PSC patient undergoing liver transplantation.
Slicing: To slice, 8-mm cores were punctured from the liver tissue and were stored in ice cold UW solution until slicing. A tissue core was glued onto the center of the plunger of the specimen syringe for slicing. The core was embedded in 2% low gelling temperature agarose made up in milliQ water. The thickness of the slice was adjusted to 400 μm and was sectioned into oxygenated KHB occurs. The slices were stored in cold UW solution on ice until all slices were cut.
Culture: The compounds were diluted to 1000× concentration in 100% DMSO. The compounds were diluted in a medium with a final concentration of 0.1% DMSO before transferring the slices and making a fresh medium for each 24-H medium change. Before being used for slice culture, all media was equilibrated in the incubator at culture conditions for 30 minutes. After all slices have been cut, all slices were transferred to wells prefilled with oxygenated, warmed, and equilibrated WEGG. The slices were incubated for 1 hour in the incubator at a temperature of 37° C., 5% CO2, 80% 02, 100% humidity on shaking platform set at 55 rpm. After this one-hour recovery, the slices were transferred to wells prefilled with oxygenated, warmed, and equilibrated WEGG with appropriate treatments. The slices were distributed into the treatment groups to account for inter-core variability. The slices were cultured at 37° C., 80% 02, 5% CO2, 100% humidity on shaking platform set at 55 rpm. The medium was changed after 24 hours.
The slices were removed from the well and rinsed in PBS. Excess liquid was removed. The slices were transferred to a microtube pooling all three slices from the same treatment into one tube. The pooled slices were snap frozen in liquid nitrogen and placed on dry ice until all samples were collected and then transferred to −80° C. for storage. For media collection, 140 μL of medium was pooled from each well within a treatment group and transferred to a 96-well Axygen plate. After sealing the plate, spin down occurred at 4000×g for 10 minutes at 4° C. Then, 130 μL aliquots were transferred into 3 new plates. The plates were sealed and stored at −80° C.
(S)-4-((2-methoxyethyl)(4-(5,6,7,8-tetrahydro-1,8-naphthyridin-2-yl)butyl)amino)-2-(quinazolin-4-ylamino)butanoic acid was tested at 100 nM, 1 μM, and 10 μM. OCA, an FXR agonist in clinical trials for PSC, was used at 250 nM and 2.5 μM reflecting Cmax levels observed in clinical trials. An ALK5 inhibitor (R268712) was used at 1 μM (400 times its IC50 per manufacturer) to target max inhibition of the ALK5 receptor.
Methods: Lysis buffer was made with one third RLT buffer in RNAse-free water and 2 mg/mL proteinase K. About 100-200 μL lysis buffer was added to each pool of 3 liver slices. Samples were incubated at 55° C. in the bead bath for 2 hours and 45 minutes, vortexing every 30 minute. Samples were centrifuged and the supernatant aliquoted in 15 μL aliquots into 96-well Axygen plates.
Methods: nCounter PlexSet was run according to standard protocol. Briefly, probe A and probe B were diluted with TE-tween to Working Probe Pools and mixed with hybridization buffer. This master mix was added to the A-H PlexSets and mixed. Each PlexSet was added across a row to a 96 well qPCR plate and proteinase K was added to a final concentration of 2 mg/mL. Lysate from samples was added to appropriate wells and mixed. The plate was sealed, spun, and placed in thermocycler at 67° C. for 16 hours. Hybridized samples were pooled down columns and 35 μL were loaded on a Sprint Cartridge and run on the nCounter Sprint. Data analysis was performed in nSolver using background thresholding based on negative controls, positive control normalization, reference sample normalization and normalization to housekeeping genes (GUSB, HPRT1, POLR1B, RPLP0, SRFS4, and/or UBC). […]

[3] = 1000 mg/kg, relative to the vehicle control
[4] = relative to inhibition with high dose ALK5 inhibitor, PCLivS from 10 livers

## COCCN(CCCCc1ccc2c(n1)NCCC2)CC[C@H](Nc1ncnc2ccccc12)C(=O)O [Bexotegrast, (S)-4-((2-methoxyethyl)(4-(5,6,7,8-tetrahydro-1,8-naphthyridin-2-yl)butyl)amino)-2-(quinazolin-4-ylamino)butanoic acid]
pSMAD3
  pSMAD3 levels in liver: decreased
[1]; 1000 mg/kg PO/QD
  reduction in total hepatic collagen: approximately 75%
[1]; [3]
  relative hepatic collagen content (normalized to liver weight): decreased
  total hepatic collagen content: decreased
[2]; 100 nM, 2 days
  % Inhibition of expression COL1A1: −6%
  % Inhibition of expression COL1A2: −8%
[2]; 1 μM, 2 days
  % Inhibition of expression COL1A1: 27%
  % Inhibition of expression COL1A2: 9%
[2]; 10 μM, 2 days
  % Inhibition of expression COL1A1: 61%
  % Inhibition of expression COL1A2: 41%
[2]; PCLivS from human PSC liver tissue, 2 days
  dose dependence of COLIA1 and COLIA2 mRNA expression: reduced in a dose dependent manner
[2]; [4]
  inhibition of the TGF-β-driven COL3A1 expression: ≤ 41%
  inhibition of the TGF-β-driven COLIA1 expression: up to 28%
  inhibition of the TGF-β-driven TGF-81 expression: ≤ 48%
[2]; ≥1 μM, PCLivS from 10 livers with biliary fibrosis (6 PSC, 4 PBC), 2 days
  trend down in overall expression of COLIA1: 22%
